Data set [1] deals with lipid peroxidation enzyme. In words: Inhibitory activity against lipid peroxidation enzyme (rat liver microsome, carbon tetrachloride, thiobarbituric acid). The class given is biochemical. The note with it: 300 µM; carbon tetrachloride 20 mM; 37°C for 12 minutes. On the procedure:
Rat liver microsome (2 mg), which is a NADPH generating system, the test compound (2-O-octadecylascorbic acid lithium obtained Example 1)(300 µM) and carbon tetrachloride (20 mM) were reacted at 37°C for 12 minutes. A mixed solution of thiobarbituric acid and trichloroacetic acid was added to the solution. Absorbance was measured at 535 nm.

The test system of a further data set is Jcl:ICR mice. In words: Toxicity after oral or intravenous administration, mice. The class given is in vivo. On the procedure:
(§1) The test compound was administered orally or intravenously to Jcl:ICR mice and Jcl:Wistar rats (two mice or rats (male and female) per group). 2-O-octadecylascorbic acid lithium obtained in Example 1 as the test compound was suspended in 0.5% methyl cellulose in the case of oral administration and dissolved in physiological saline in the case of intravenous administration.

Assay in data set [2]: as above
Conditions: mouse, in vivo, read-out: LD₅₀. The class given is in vivo. On the procedure: as §1

The nature of the next data set: Water-solubility. Conditions: at 28°C.
The test system of data set [3] is rabbit defibrinated blood. In words: Hemolysis test with rabbit defibrinated blood. The class given is cell-based. Conditions: not more than 1 µg/ml in physiological saline; 37°C for 1 hour; macroscopic observation of the supernatant. On the procedure:
A physiological saline solution containing 2-O-octadecylascorbic acid lithium obtained in Example 1 below was warmed to 37°C, put in a Spitz roll, provided with rabbit defibrinated blood (Note)(0.1 ml) previously warmed to 37°C, shaken for mixing gently and warmed at 37°C for 1 hour. Then, this liquid was subjected to centrifugation. Macroscopic observation was made as to whether the supernatant had hemolysis.
Blood (about 20 ml) was drawn from rabbits, put in a flask containing about twenty glass beads of diameter of 8 mm, shaken for mixing gently for about 5 minutes and filtered through gauze. This preparation was carried out before use.

In data set [4] the target is T1, GST-cdc25Hu2 fused protein (Homo sapiens, UniProt P30305).
T1 sequence (P30305 1-580): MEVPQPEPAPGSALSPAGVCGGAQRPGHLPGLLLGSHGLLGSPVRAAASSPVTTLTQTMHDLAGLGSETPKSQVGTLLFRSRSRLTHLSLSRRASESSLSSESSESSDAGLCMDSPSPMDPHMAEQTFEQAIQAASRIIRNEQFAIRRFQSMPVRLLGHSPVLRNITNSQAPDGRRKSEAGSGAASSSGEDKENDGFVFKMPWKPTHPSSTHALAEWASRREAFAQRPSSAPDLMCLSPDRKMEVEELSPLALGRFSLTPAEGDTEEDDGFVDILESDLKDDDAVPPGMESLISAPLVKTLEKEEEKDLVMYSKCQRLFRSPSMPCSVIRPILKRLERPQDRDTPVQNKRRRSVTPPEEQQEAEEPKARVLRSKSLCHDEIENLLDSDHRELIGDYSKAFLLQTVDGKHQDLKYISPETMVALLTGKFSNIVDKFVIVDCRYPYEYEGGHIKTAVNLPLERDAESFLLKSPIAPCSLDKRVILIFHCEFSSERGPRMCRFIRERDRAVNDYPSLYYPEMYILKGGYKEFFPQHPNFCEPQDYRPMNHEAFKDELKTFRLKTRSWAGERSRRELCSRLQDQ
Put plainly: GST-cdc25Hu2 (protein phosphatase) inhibitory activity. The note with it: 37°C for 60 minutes, read-out: cdc25 activity inhibited. The class given is biochemical. On the procedure:
A test compound (2-O-octadecylascorbic acid lithium obtained in Example 1)(80 µM) was added to a reaction mixture containing GST-cdc25Hu2 fused protein (60 µg/ml), p-nitrophenylphosphate (manufactured by Wako Pure Chemical Industries, Ltd.)(10 mM), bovine serum albumin (manufactured by Sigma, U.S.A.)(100 µg/ml), DDT (dithiothreitol) (manufactured by Wako Pure Chemical Industries, Ltd.)(10 mM) and HEPES (2-hydroxyethylpiperazine-N'-2-ethane sulfate)(25 mM, pH 8.0). The mixture was subjected to reaction at 37°C for 60 minutes. Then, absorbance at 405 nm was measured, and the inhibitory activity was evaluated based on the decrease of the absorbance.

Data set [5] deals with myocardial infarction focus. In words: Inhibition of development of myocardial infarction focus after coronary obstruction-reperfusion in rats. Conditions: 1 mg/kg intravenous. The class given is in vivo, Male Wistar-rats. On the procedure: Male Wistar-rats (11 to 12 weeks old) were used and anethesized with pentobarbital-Na, and medianus thoracotomy was carried out under artificial respiration. After incising the pericardium membrane, the heart was exposed. The base of the left coronary artery together with cardiac muscle was threaded with a sutural needle and thread (marketed by Lederle (Japan), Ltd., 7-0 silk), which were passed through a polyethylene tube, and the thread was pulled. Thus, coronary artery was obstructed. One hour later, the thread was loosed to make blood to flow again. Thirty to sixty minutes after reperfusion, the thorax was closed and the rat was kept under arousal.
After 24 hours, the rats were anesthetized again, and the heart was removed quickly and soaked in ice-cooled physiological saline. The coronary artery was obstructed again to know a dangerous region. Evans' Blue (1%) was perfused through a polyethylene tube inserted into the aorta retrogradely, and normal region was separated from the dangerous region. Thereafter, the left ventricle was divided into 6 parts parallel to the vertical axis and dyed with triphenyl tetrazolium chloride (TTC)(1%) at 37°C for 10 minutes except necrotic cells. The infarction focus was weighed. The test drug (2-O-octadecylascorbic acid obtained in Example 1) was dissolved in physiological saline, and administered intravenously 30 minutes after the coronary obstruction.

For the next data set, the system named is Jcl:Wistar rats. Put plainly: Toxicity after oral or intravenous administration, rats. The class given is in vivo. On the procedure:
as §1

Assay in data set [6]: as above
The class given is in vivo. Conditions: rat, in vivo, read-out: LD₅₀. On the procedure: as §1

For data set [7], the target named is T2, Phospholipase A₂ derived from pig pancreas (Sus scrofa, UniProt P00592).
T2 construct: Phospholipase A₂ derived from pig pancreas; from tissue; host or cells: pig pancreas
T2 sequence (P00592 23-146): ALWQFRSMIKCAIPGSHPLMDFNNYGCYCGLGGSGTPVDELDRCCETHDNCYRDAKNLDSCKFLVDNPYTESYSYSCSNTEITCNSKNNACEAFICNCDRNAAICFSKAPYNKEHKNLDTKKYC
In words: Inhibitory activity against phospholipase A₂. Conditions: pH 9, read-out: enzymatic activity of the phospholipase inhibited. The class given is biochemical. On the procedure: Phospholipase A₂ derived from pig pancreas was reacted for 10 minutes in 0.1M glycine-NaOH buffer (pH 9) containing a test compound (2-O-octadecylascorbic acid lithium obtained in Example 1)(300 µM) and labeled phosphatidylcholine. Thereafter, Ca⁺⁺ (2.5 mM) was added and the reaction was continued for additional 5 minutes. The reaction was stopped by adding 0.2M EDTA solution to the reaction mixture. The mixture was extracted with acidic […]. Scintillation of the […] layer was measured.

Setting [8] is: intravenous administration, dissolved in physiological saline.
The mark [9] stands for this setting: oral administration, suspended in 0.5% methyl cellulose.

On to `CCCCCCCCCCCCCCCCCCOC1=C(O)[C@@H]([C@@H](O)CO)OC1=O.[Li]` [2-O-octadecylascorbic acid lithium], for which the “inhibitory ratio of the enzymatic activity” value in data set [1] was 75%. In addition, the “Abnormal findings in the autopsy of the survivors” value in the data set on Jcl:ICR mice and with Jcl:Wistar rats was “not observed” throughout. The “autopsy of the dead animals” value in the data set on Jcl:ICR mice (intravenous administration) and with Jcl:Wistar rats (intravenous administration) was “Pulmonary congestion was observed” each time. The LD50 in [2] (setting [8]) is 25 to 50 mg/kg; in data set [2] (setting [9]), at least 2000 mg/kg; in data set [6] (setting [8]) it was 25 to 50 mg/kg; in data set [6] (setting [9]), at least 2000 mg/kg. For the same molecule, the water-solubility in the data set “Water-solubility” is 1 g/83 ml (water). Moreover, in data set [3], the hemolysis result is given as “not observed”. Moreover, in data set [4], the inhibition at 80 µM turned out to be 93.6%. The “infarction focus per the dangerous region (IS/AR)” value in [5] (30 minutes after the coronary obstruction, N=7, control 60.0±1.8%) is 40.5±4.6%. Also, in data set [5] (P<0.001), the “inhibition in comparison with the control group” value is recorded as 32.7%. For the same molecule, the “dangerous region per left ventricle (AR/LV)” value in data set [5] (compared with the physiological saline group) is listed as “no significant difference”. The inhibition at 300 µM in data set [7] was 59%.

Source of the values: patent EP0619313A1, “LITHIUM SALT OF 2-O-ALK[…]” (TSUMURA & CO., priority 1992, dated 1994).
